Earlier results, collected in patent US20050069593A1, “Nutritional supplement containing 7-Keto-DHEA and conjugated linoleic acid” (LIFE TIME FITNESS, Inc., priority 2003, published 2005).

Test system: brown adipose tissue
Conditions: in vitro; Dulloo, et al., Int. J. Obes. Relat. Metab. Disord. 24, 252 (2000)

## O=C(O[C@@H]1Cc2c(O)cc(O)cc2O[C@@H]1c1cc(O)c(O)c(O)c1)c1cc(O)c(O)c(O)c1 [EGCG, epigallocatechin gallate]
  respiration rate of brown adipose tissue: increased
